Results published in patent US9359451B2, “Methods and compositions for treating trauma-hemorrhage using estrogen and derivatives thereof” (THE UAB RESEARCH FOUNDATION, priority 2012, dated 2016).
Entries after “also recorded” stand apart in the source; their conditions may differ.

Tests used:
Assay type in all cases: in vivo, mouse
[1] = test system: iNOS, nitrotyrosine, COX-2, Bax and Bcl-2; experiment: Spinal cord injury: immunohistochemical localization of nitrotyrosine, iNOS, COX-2, Bax and Bcl-2; conditions: 24 h after SCI; ICI 182,780: co-administered with 17β-estradiol
Experimental: Mice were anaesthetized using chloral hydrate (400 mg/kg body weight) (Genovese 2006). A longitudinal incision was made on the midline of the back, exposing the paravertebral muscles. These muscles were dissected away exposing T5-T8 vertebrae. The spinal cord was exposed via a four-level T6-T7 laminectomy and SCI was produced by extradural compression using an aneurysm clip with a closing force of 24 g. Following surgery, 1 ml of saline was administered subcutaneously in order to replace the blood volume lost during surgery. During the surgery and recovery from anesthesia, the mice were placed on a warm heating pad and covered with a warm towel. […] Food and water were provided to the mice ad libitum. During this time period, the animals' bladders were manually voided twice a day until the mice were able to regain normal bladder function. In all injured groups, the spinal cord was compressed for 1 min. Sham-injured animals were only subjected to laminectomy. Mice were randomly allocated into the following groups: (i) saline+SCI group, mice received saline subcutaneously and were subjected to SCI (n=40); […] (v) saline+sham group, mice were subjected to the surgical procedures as above group except that the aneurysm clip was not applied (n=40); […] In the experiments regarding the motor score, the animals from all the experimental groups were observed and treated daily for 9 days after SCI. At different time points (see FIG. 30), the mice (n=10 from each group for each of the 3 time points) were sacrificed in order to evaluate the various parameters as described below. […] After deparaffinization, endogenous peroxidase was quenched with 0.3% (v/v) hydrogen peroxide in 60% (v/v) methanol for 30 min. […] Non-specific adsorption was minimized by incubating the section in 2% (v/v) normal goat serum in PBS for 20 min. Endogenous biotin or avidin binding sites were blocked by sequential incubation for 15 min with biotin and avidin (DBA), respectively. […] Sections were washed with PBS, and incubated with secondary antibody. Specific labeling was detected with a biotin-conjugated goat anti-rabbit IgG and avidin-biotin peroxidase complex (DBA) and counterstained with nuclear fast red. To verify the binding specificity for nitrotyrosine, iNOS, COX-2, Bax, and Bcl-2, some sections were also incubated with only the primary antibody (no secondary) or with only the secondary antibody (no primary). […] Immunocytochemistry photographs (n=5) were assessed by densitometry as previously described (Shea 1994) by using Imaging Densitometer (AxioVision, Zeiss, Milan, Italy) and a computer program.

Bax and Bcl-2 = experiment: Spinal cord injury: Western blot analysis for Bax and Bcl-2; conditions: 24 h after SCI; ICI 182,780: co-administered with 17β-estradiol
Experimental: Mice were anaesthetized using chloral hydrate (400 mg/kg body weight) (Genovese 2006). A longitudinal incision was made on the midline of the back, exposing the paravertebral muscles. These muscles were dissected away exposing T5-T8 vertebrae. The spinal cord was exposed via a four-level T6-T7 laminectomy and SCI was produced by extradural compression using an aneurysm clip with a closing force of 24 g. Following surgery, 1 ml of saline was administered subcutaneously in order to replace the blood volume lost during surgery. During the surgery and recovery from anesthesia, the mice were placed on a warm heating pad and covered with a warm towel. […] Food and water were provided to the mice ad libitum. During this time period, the animals' bladders were manually voided twice a day until the mice were able to regain normal bladder function. In all injured groups, the spinal cord was compressed for 1 min. Sham-injured animals were only subjected to laminectomy. […] In the experiments regarding the motor score, the animals from all the experimental groups were observed and treated daily for 9 days after SCI. At different time points (see FIG. 30), the mice (n=10 from each group for each of the 3 time points) were sacrificed in order to evaluate the various parameters as described below. […] After 1 hour, tissue lysates were obtained by centrifugation at 100,000×g for 15 min at 4° C. Protein concentrations were estimated by the Bio-Rad protein assay (Bio-Rad Laboratories, Segrate, Milan, Italy) using BSA as standard. […] The blot was performed by transferring proteins from a slab gel to nitrocellulose membrane at 240 mA for 40 min at room temperature. […] The AffiniPure Goat Anti-Rabbit IgG coupled to peroxidase secondary antibody (1:2000; Jackson Immuno Research, Laboratories, Inc., CA, USA) was incubated for 1 hour at room temperature. Subsequently, the blot was extensively washed with PBS, developed using SuperSignal West Pico chemiluminescence Substrate (PIERCE, Milan, Italy), according to the manufacturer's instructions, and exposed to Kodak X-Omat film (Eastman Kodak Co., Rochester, N.Y.). α-Tubulin protein (Sigma; 1:1000) Western blot was performed to ensure equal sample loading. The protein bands of Bax (23˜kDa), or Bcl-2 (26˜kDa) on x-ray film were scanned and densitometrically analyzed with a model GS-700 imaging densitometer (Bio-Rad Laboratories). To ascertain that blots were loaded with equal amounts of protein lysates, they were also incubated in the presence of the antibody against α-tubulin protein (1:10,000 Sigma-Aldrich Corp.). The densitometric data for Western are normalized for loading control values.

hind limb motor function = experiment: Spinal cord injury: grading of motor disturbance (modified BBB scale); conditions: every day for 10 days after SCI; pre or post treatment with 17β-estradiol; ICI 182,780: co-administered with 17β-estradiol
Experimental: Mice were anaesthetized using chloral hydrate (400 mg/kg body weight) (Genovese 2006). A longitudinal incision was made on the midline of the back, exposing the paravertebral muscles. These muscles were dissected away exposing T5-T8 vertebrae. The spinal cord was exposed via a four-level T6-T7 laminectomy and SCI was produced by extradural compression using an aneurysm clip with a closing force of 24 g. Following surgery, 1 ml of saline was administered subcutaneously in order to replace the blood volume lost during surgery. During the surgery and recovery from anesthesia, the mice were placed on a warm heating pad and covered with a warm towel. […] Food and water were provided to the mice ad libitum. During this time period, the animals' bladders were manually voided twice a day until the mice were able to regain normal bladder function. In all injured groups, the spinal cord was compressed for 1 min. Sham-injured animals were only subjected to laminectomy. […] In the experiments regarding the motor score, the animals from all the experimental groups were observed and treated daily for 9 days after SCI. At different time points (see FIG. 30), the mice (n=10 from each group for each of the 3 time points) were sacrificed in order to evaluate the various parameters as described below. […] The motor function of mice subjected to compression trauma was assessed once a day for 10 days after injury. […]

| Compound | immunohistochemical expression of Bax [1] | immunohistochemical expression of Bcl-2 [1] | immunostaining for COX-2 [1] | immunostaining for iNOS [1] | immunostaining for nitrotyrosine [1] | Bax levels (Western blot) (Bax and Bcl-2) | Bcl-2 expression (Western blot) (Bax and Bcl-2) | hind limb motor disturbance (BBB score) (hind limb motor function) |
| --- | --- | --- | --- | --- | --- | --- | --- | --- |
| C[C@]12CC[C@@H]3c4ccc(O)cc4CC[C@H]3[C@@H]1CC[C@@H]2O [17β-estradiol] | reduced the degree of positive staining for Bax; also recorded: significantly inhibited the SCI-induced increase in Bax expression | attenuated the loss of positive staining for Bcl-2; also recorded: significantly prevents the loss of Bcl-2 expression | reduced the degree of positive staining for COX-2; also recorded: marked reduction in the immunostaining for COX-2 | reduced the degree of positive staining for iNOS; also recorded: marked reduction in the immunostaining | reduced the degree of positive staining for nitrotyrosine; also recorded: marked reduction in the immunostaining | prevented the SCI-induced Bax expression; also recorded: Bax band disappeared | significantly reduced the SCI-induced inhibition of Bcl-2 expression; also recorded: Bcl-2 band is more evident | significant amelioration of hind limb motor disturbances; also recorded: reduces the motor disturbance after SCI |
| C[C@]12CC[C@@H]3c4ccc(O)cc4C[C@@H](CCCCCCCCC[S+]([O-])CCCC(F)(F)C(F)(F)F)[C@H]3[C@@H]1CC[C@@H]2O (stereo partly shown) [ICI 182,780] | significantly blocked the effect of the 17β-estradiol | significantly blocked the effect of the 17β-estradiol | significantly blocked the effect of the 17β-estradiol | significantly blocked the effect of the 17β-estradiol | significantly blocked the effect of the 17β-estradiol | significantly blocked the effect of the 17β-estradiol; also recorded: Bax band is more evident in comparison with the band present in the tissue from 17β-estradiol-treated mice | significantly blocked the effect of the 17β-estradiol; also recorded: BCL2 band is less evident | significantly blocked the effect of the 17β-estradiol |
